Laboratory results taken from EPA's ToxValDB 9.5 (doi:10.2903/j.efsa.2010.1598).
In brackets after ≈: the same amount, converted by molar mass.

Columns and labels:
Ictalurus punctatus = details: acute; duration: 96 hours; mortality
Daphnia magna = details: chronic/long-term; duration: 21 days; reproduction
Oryctolagus sp. = details: developmental; development
Oncorhynchus mykiss = details: chronic/long-term; duration: 21 days; growth
Apis mellifera = details: acute; dermal; mortality
Colinus virginianus = details: acute; oral; mortality
Canidae = details: acute; oral; Dog Other; mortality
Bibionidae = details: chronic/long-term; duration: 28 days

## COC(=O)Nc1nc2ccccc2[nH]1 [Carbendazim]
Ictalurus punctatus
  LC50: 0.019 mg/L (≈ 0.0994 µM)
Daphnia magna
  NOEC: 0.0015 mg/L
Oryctolagus sp.
  NOAEL: 10 mg/kg-day
Anas platyrhynchos; reproductive
  NOEL: 24.6 mg/kg-day
Anas platyrhynchos; short-term, oral, feed, mortality
  LD50: 615 mg/kg-day
Rattus norvegicus; chronic, organ weight
  NOEL: 22.5 mg/kg-day
Rattus norvegicus; developmental, development
  NOAEL: 10 mg/kg-day
Oncorhynchus mykiss
  NOEC: 0.0032 mg/L
Apis mellifera
  LD50: > 50 µg/piece
Colinus virginianus
  LD50: > 2250 mg/kg-day
Tagia sp.; acute, duration: 14 days, mortality
  LC50: 5.4 mg/kg
Tagia sp.; chronic/long-term, duration: 56 days
  NOEC: 1 mg/kg
Canidae
  LD50: > 5000 mg/kg-day
Bibionidae
  NOEC: 0.0133 mg/L
